What was measured:
BDL rats [1] = assay: Brain oedema in the prefrontal cortex of BDL rats (dry weight technique); assay type: in vivo; details: versus control without treatment
Description: (§1) All experiments were performed in accordance with the Animals (Scientific Procedures) Act of 1986, which was revised according to the European Directive2010/63/EU. All animals received humane care according to the criteria outlined in the Guide for the Care and Use of Laboratory Animals (National Institutes of Health publication 86-23; revised 1985). All the animals used in these experiments were Male Sprague-Dawley rats (body weight, 250 g at the beginning of the experiments) were obtained from Charles River Laboratories (Kent, UK) and divided into 5 groups: bile duct ligated animals+ammonia+saline serum (BDL+HA+SS, n=6), bile duct ligated animals+ammonia+sodium phenylacetate (BDL+HA+SP, n=6), bile duct ligated animals+ammonia+sodium phenylacetate+glutamine synthetase (BDL+HA+SP+GS, n=5), bile duct ligated animals+ammonia+glutamine synthetase (BDL+HA+GS, n=6), sham-operated animals+glutamine synthetase (SHAM+GS, n=5). Treatment comprising SP and GS may be referred to as “COMBO”.
This was measured using the dry weight technique as described previously. […] The dry weight was determined after Eppendorf's loaded with individual brain samples were dried in an oven at 60° C. for 7 days. Tissue water content was then calculated as % H2O=(1-dry wt/wet wt)×100%.

BDL rats [2] = assay: Ammonia blood levels in BDL rats; assay type: in vivo; details: BDL rats on hyperammonemic diet
Description: All experiments were performed in accordance with the Animals (Scientific Procedures) Act of 1986, which was revised according to the European Directive2010/63/EU. All animals received humane care according to the criteria outlined in the Guide for the Care and Use of Laboratory Animals (National Institutes of Health publication 86-23; revised 1985). All the animals used in these experiments were Male Sprague-Dawley rats (body weight, 250 g at the beginning of the experiments) were obtained from Charles River Laboratories (Kent, UK) and divided into 5 groups: bile duct ligated animals+ammonia+saline serum (BDL+HA+SS, n=6), bile duct ligated animals+ammonia+sodium phenylacetate (BDL+HA+SP, n=6), bile duct ligated animals+ammonia+sodium phenylacetate+glutamine synthetase (BDL+HA+SP+GS, n=5), bile duct ligated animals+ammonia+glutamine synthetase (BDL+HA+GS, n=6), sham-operated animals+glutamine synthetase (SHAM+GS, n=5). Treatment comprising SP and GS may be referred to as “COMBO”. […]
Plasma samples were collected from the leg vein at different timepoints in all groups. The timepoints were counted after the treatment with glutamine synthetase as follows: 6 hours, 24 hours, 48 hours and 5 days. […]

BDL rats [3] = assay: RotaRod-Accelerod test in BDL rats; assay type: in vivo
Description: as §1
This test of motor performance consists of a motor-driven rotating rod that enables us to assess motor coordination and resistance to fatigue (Jones and Roberts 1968). […] Latency to fall off the rod and the actual rotation speed were recorded in the pre- and post-treatment conditions for all groups after 1 hour treatment.

[4] = mouse, in vivo, sc, 2.5 mg/kg
Description: The ELISA was conducted according to the protocol outlined by the manufacturer (Abcam PEG ELISA kit, ab133065). […] N=2 animals in each group.

Molecule | brain oedema in the prefrontal cortex (BDL rats [1]) | ammonia levels in the blood (BDL rats [2]) | rotarod grip test performance (BDL rats [3]) | plasma level (PEG ELISA) [4]
O=C([O-])Cc1ccccc1.[Na+] [SP, sodium phenylacetate] | did not statistically significantly reduce the swelling | significant reduction of ammonia levels in the blood | did not lead to stastically significant effects | –
wt GS: Non-conjugated human glutamine synthetase with N-terminal His-tag and GGGGS linker (SEQ ID NO: 4), expressed in E. coli | – | – | – | very low or undetectable levels

Source: patent publication US11932885B2, “Use of glutamine synthetase for treating hyperammonemia” (Thoeris GmbH, priority 2017, dated 2024)
